From ChEMBL document CHEMBL1201862, “PubChem BioAssay data set” (2004) come the findings set out here.

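96-well plates; 48 h exposure; 5 concentrations. Endpoints by linear interpolation between flanking doses. Not reached: highest tested concentration assigned. At the GI50, growth is halved.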 Active and inactive are the calls of the source. No stated cut-off is given here; in the data, active = GI50 up to about 1.1 µM and inactive = higher.

Holding throughout (experiment): growth of human tumour cells (NCI), 48 h
Test [1] deals with UACC-62.
In test [2] the test system is M14.
Test [3] concerns SK-MEL-2.
Test [4] relates to RPMI-8226.
The test system of test [5] is SN12C.
Test [6] relates to LOX IMVI.
Test [7] deals with EKVX.
Test [8] deals with 786-0.
Test [9] has as its system HCT-116.
Test [10] concerns HL-60.
Test [11] concerns HCT-15.
Test [12] relates to HOP-92.
The subject of test [13] is SR.
Test [14] deals with NCI/ADR-RES.
Test [15] relates to MOLT-4.
For test [16], the system named is OVCAR-3.
Test [17] concerns PC-3.
Test [18] has as its system SF-539.
Test [19] relates to DU-145.
Test [20] concerns SF-268.

As to `Cc1c(-c2ccccc2)c(-c2ccc(OCCN(C)C)cc2)n2ccccc12`, the GI50 in test [1] was 1.84 µM (inactive); in test [2] it was 1.79 µM (inactive); in test [3], 7.74 µM (inactive); in test [4], 2.69 µM (inactive); in test [5], 12.1 µM (inactive); in test [6] it was 2.23 µM (inactive). For the same molecule, the GI50 in test [7] is 15.3 µM (inactive); in test [8] it was 7.11 µM (inactive); in test [9], 5.61 µM (inactive); in test [10], 3.67 µM (inactive); in [11] it was 2.55 µM; in test [12], 8.59 µM (inactive). The GI50 in test [13] is 2.43 µM (inactive); in [14] it was 13.2 µM (inactive); in [15] it was 3.48 µM (inactive); in [16] it was 12 µM (inactive); in test [17], 6.34 µM (inactive); in [18], 10.5 µM (inactive). Besides, the values for the GI50 in [19] and in test [20] were 13.3 µM (inactive) and 14.3 µM (inactive), respectively.

For `O=C1c2ccccc2-c2nc(-c3ccncc3)cc3c2c1nc1ccccc13`, the GI50 in test [1] was 13.4 µM (inactive); in test [2], 3.21 µM (inactive); in test [3], 11.3 µM (inactive); in test [4], 11.4 µM (inactive); in test [5], 15.1 µM (inactive); in test [6] it was 14.5 µM (inactive). Besides, the GI50 in [7] is 34.2 µM (inactive); in test [8], 11.1 µM (inactive); in test [9] it was 6.4 µM (inactive); in test [10], 11 µM (inactive); in [11], 19 µM; in test [12], > 100 µM (inactive). Further, the GI50 in test [13] is 2.38 µM (inactive); in [14], > 100 µM (inactive); in test [15], 2.83 µM (inactive); in test [16], 1.52 µM (inactive); in test [17], 13.3 µM (inactive); in test [18], 22 µM (inactive). Also, the GI50 in [19] was 14.8 µM (inactive).

As to `Cc1c(-c2ccccc2)c(C#N)c2nnn(-c3ccc(Cl)cc3)c(=O)n12`, the GI50 in [1] was 0.869 µM (active); in [2], 5.08 µM (inactive); in test [3], 26.8 µM (inactive); in [4], 23.5 µM (inactive); in [5], 35.2 µM (inactive); in test [6] it was 0.714 µM (active). For the same molecule, the GI50 was 50.9 µM (inactive) in [7]; 18.3 µM (inactive) in test [8]; 12.8 µM (inactive) in test [9]; 4.43 µM (inactive) in test [10]; 10.1 µM in test [11]; > 100 µM (inactive) in [12]. Also, the GI50 in test [13] was 8.53 µM (inactive); in [14] it was 17.6 µM (inactive); in test [16], 16.4 µM (inactive); in [17] it was 22.2 µM (inactive); in [18], 20.7 µM (inactive); in [19], 38.5 µM (inactive). Also, the GI50 in test [20] was 32.6 µM (inactive).

Regarding `C=C1c2nc3ccccc3n2C=C(c2ccc(Cl)cc2)N1c1ccccc1`, the GI50 was 18.3 µM (inactive) in test [1]; 16.3 µM (inactive) in [2]; 22.5 µM (inactive) in [3]; 28 µM (inactive) in [4]; 39.9 µM (inactive) in test [5]; 33.7 µM (inactive) in test [6]. For the same molecule, the GI50 in [7] was 14.8 µM (inactive); in test [8], 13.3 µM (inactive); in test [9], 14 µM (inactive); in test [10], 41.1 µM (inactive); in test [11], 12.1 µM; in [12] it was 20.7 µM (inactive). The GI50 was 5.94 µM (inactive) in [13]; 12.2 µM (inactive) in test [14]; > 100 µM (inactive) in test [15]; 17.2 µM (inactive) in [16]; 26.4 µM (inactive) in test [17]; 13.2 µM (inactive) in [18]. Moreover, the GI50 in test [19] is 32.5 µM (inactive).

Regarding `N=c1oc2ccccc2cc1-c1nc2ccccc2c(=O)[nH]1`, the GI50 in test [1] was 27.8 µM (inactive); in test [2], > 100 µM (inactive); in test [3], 58.9 µM (inactive); in test [4] it was > 100 µM (inactive); in [5], > 100 µM (inactive); in [6] it was 54.5 µM (inactive). Further, the GI50 in [7] is 35.6 µM (inactive); in test [8] it was 31.4 µM (inactive); in [9] it was 42.9 µM (inactive); in test [10], 45.7 µM (inactive); in test [11], 78.2 µM; in test [12], 20 µM (inactive). The GI50 was 42.9 µM (inactive) in test [13]; 72.6 µM (inactive) in test [14]; > 100 µM (inactive) in test [15]; > 100 µM (inactive) in [17]; 60.4 µM (inactive) in [18]; > 100 µM (inactive) in [19]. Besides, the GI50 in test [20] was 29 µM (inactive).

As to `CC1=C[C@@H](C)C[C@]2(C)CC[C@H](O2)[C@]23CC[C@](C)(C[C@H](O2)[C@@H]2O[C@@](C)(CC2=O)[C@@H](O)[C@H]2CC[C@@]4(CCC[C@@H](O4)[C@H](C)C(=O)O[C@H]4C[C@H]([C@]5(O)OCC[C@H](C)[C@@H]5O)O[C@H]4C=C1)O2)O3`, the GI50 in test [1] was 0.00461 µM (active); in [2] it was 0.00527 µM (active); in test [3] it was 0.383 µM (active); in [6] it was < 0.001 µM (active); in test [7] it was 0.0113 µM (active); in [8], 0.0027 µM (active). Also, the GI50 in test [9] is 0.00826 µM (active); in test [10], 0.0346 µM (active); in test [11], 0.00796 µM; in test [12], 0.00159 µM (active); in test [13] it was 0.00157 µM (active); in [14], 0.897 µM (active). In addition, the GI50 is 0.00397 µM (active) in [16]; 0.00229 µM (active) in [17]; 0.00185 µM (active) in [18]; 0.0601 µM (active) in [19]; 0.002 µM (active) in test [20].

On to `O=C(CSc1nnc(-c2ccccn2)s1)N/N=C/c1ccc([N+](=O)[O-])cc1`, for which the GI50 in test [1] was 76.4 µM (inactive); in [2] it was > 100 µM (inactive); in test [3] it was 77.1 µM (inactive); in [5] it was 69.8 µM (inactive); in test [6], > 100 µM (inactive); in [8], 41.9 µM (inactive). Moreover, the GI50 was 55.7 µM (inactive) in test [9]; > 100 µM (inactive) in test [10]; 45.6 µM in test [11]; 16.3 µM (inactive) in test [12]; > 100 µM (inactive) in [13]; > 100 µM (inactive) in [14]. Moreover, the GI50 is > 100 µM (inactive) in [15]; > 100 µM (inactive) in test [16]; 65.8 µM (inactive) in [17]; 59.2 µM (inactive) in test [18]; 11.4 µM (inactive) in test [19]; 22.1 µM (inactive) in test [20].

As for `O=c1c2cc([N+](=O)[O-])ccc2n2n1CCCC2`, the GI50 in test [1], in test [2], in test [4], in [5], in test [6] and in test [7] was > 100 µM (inactive) each time. Moreover, the GI50 in test [8] is > 100 µM (inactive); in test [9] it was > 100 µM (inactive); in test [10], > 100 µM (inactive); in [11], above 100 µM; in [12], > 100 µM (inactive); in test [13] it was > 100 µM (inactive). Moreover, the GI50 in test [14], in test [15], in test [16], in test [17], in test [18] and in test [19] was > 100 µM (inactive) throughout. Besides, the GI50 in test [20] was > 100 µM (inactive).

For the molecule `CCOC1NC(=O)Oc2ccccc21` (stereo unspecified), the GI50 in test [1], in test [2], in [3], in [5], in test [6] and in test [7] was > 100 µM (inactive) in each case. The GI50 in [8] is > 100 µM (inactive); in test [9], > 100 µM (inactive); in test [10], > 100 µM (inactive); in test [11] it was above 100 µM; in [12] it was > 100 µM (inactive); in test [13] it was > 100 µM (inactive). Also, the GI50 in test [14] is > 100 µM (inactive); in [15], > 100 µM (inactive); in [16], 68.2 µM (inactive); in test [17], > 100 µM (inactive); in test [18] it was > 100 µM (inactive); in [19] it was > 100 µM (inactive). The GI50 in [20] is > 100 µM (inactive).

For the molecule `N=c1oc2ccc(Cl)cc2cc1C(N)=O`, the GI50 was 16.8 µM (inactive) in test [1]; 27.5 µM (inactive) in test [2]; 13.3 µM (inactive) in test [3]; 66.4 µM (inactive) in [4]; 18.8 µM (inactive) in test [5]; 31.8 µM (inactive) in test [6]. For the same molecule, the GI50 was 24.8 µM (inactive) in test [8]; 21.2 µM (inactive) in test [9]; 54.2 µM (inactive) in test [10]; 29.4 µM in test [11]; 36 µM (inactive) in test [12]; 65.3 µM (inactive) in test [13]. Moreover, the GI50 was 34.4 µM (inactive) in test [14]; > 100 µM (inactive) in test [15]; 18.2 µM (inactive) in test [16]; 17.2 µM (inactive) in test [17]; 31.3 µM (inactive) in test [18]; 35.9 µM (inactive) in test [19]. Besides, the GI50 in [20] was 26.3 µM (inactive).

Take `CN(C)C1(C(=O)O)CC1`: the GI50 in test [2], in test [4], in test [5], in test [6], in test [7] and in [8] was > 100 µM (inactive) each time. Further, the GI50 in test [9] is > 100 µM (inactive); in [10], > 100 µM (inactive); in [11] it was above 100 µM; in [12], > 100 µM (inactive); in [13] it was > 100 µM (inactive); in test [14], > 100 µM (inactive). In addition, the GI50 in test [15], in test [16], in [17], in test [18], in test [19] and in test [20] was > 100 µM (inactive) each time.
